Laboratory results from US8420652B2, “Use of aryl piperazine derivatives in manufacturing medicants for treating pain” (NHWA Pharma Corporation, priority 2008, dated 2013).
Where two headings read alike, the source gives them in different places.

Tests used:
Format in all cases: in vivo
Sprague-Dawley (SD) rats [1] = experiment: Spared nerve injury (SNI) test; details: intragastrically on Day 12, 13, 14 after surgery, mechanical allodynia at 60 minutes after administration; for ED50: Rattus norvegicus, po, read-out: ED50, analgesic activity in the spared nerve injury (SNI) test
Excerpt: Neuropathic pain is also called for short as neuralgia, which is a common chronic pain. It is an abnormal pain condition caused by hurt or disease-induced trauma of peripheral or central nerve, and can not be cured effectively till now. Sciatic nerve branches selective injury model (spared nerve injury, SNI) is a neuralgia model established in 2000 (see Spared nerve injury: an animal model of persistent peripheral neuropathic pain, Pain, 2000 August; 87(2): 149-58). The model can produce […] robust mechanical allodynia, so it can simulate the clinic nerve pathologic pain relatively well.
Adult male Sprague-Dawley (SD) rats weighting 200-250 g (Experimental Animal Center of Xuzhou Medical College) were employed in the test after acclimation by feeding for 1 week. First, Sciatic nerve branches selective injury model (spared nerve injury, SNI) was replicated, The rats of successful modeling were administered intragastrically on Day 12, 13, 14 after surgery. The mechanical allodynia were measured at 60 minutes after administration every day (von Frey Cilia Apparatus, manufactured by Institute of Biology Bioengineering, Chinese Academy of Medical Science).

Kunming mice = experiment: Acetic acid-induced writhing test; details: for ED50: Mus musculus, read-out: ED50, analgesic activity in writhing test
Description: Kunming mice (18-22 g, male and female each half) were divided into a negative control group, an Aspirin control group, a morphine control group and a group of the compound of the invention. Each group of mice were respectively administered corresponding medicine (0.2 ml/10 g) intragastrically or subcutaneously, The mice of the negative control group were administered, the same volume vehicle. After 60 minutes (intragastrically) or 30 minutes (subcutaneously), each group of mice were administered 0.6% acetic acid solution (0.4 ml) by intraperitoneal injecting, and then writhing times in 15 minutes were observed and recorded immediately. Writhing inhibition rate in mice was used as the pharmacodynamic index of analgesic activity. Writhing inhibition rate(%)=(writhing times of negative control group−writhing times of medicine group)/Writhing times of negative control group×100%
ED50 values were calculated according to the result.

KM female mice = experiment: Hot-plate test in mice; details: for ED50: Mus musculus, 1 h, read-out: ED50, analgesic activity in the hot-plate test
Excerpt: Hot-plate test is one of conventional physiological pain models. Mice lick hind paws, jump up and so on when they are subject to thermal stimulus. Analgesics that take effect on central nervous system can increase the thermo-pain threshold, prolong the latency of protective response.
KM female mice weighting 18-22 g were employed in the test. Primary screening was done before the test to remove the animals whose responses were too slow (>30 s) or too sensitive (<6 s). The mice passing the primary screening were divided into a negative control group, a morphine control group and a group of the compound of the invention. Each group of mice were respectively administered corresponding dose of medicine intragastrically or by intravenous injection, and 60 minutes later, a hot-plate test was done on those mice. The time of first licking hind paws and jumping up was recorded (the data over 60 s is recorded as 60) and compared with the latency of the animals in the control group. The analgesic activity of each dose was calculated and ED50 was calculated from the analgesic activity.

Sprague-Dawley (SD) rats [2] = experiment: Bee venom test; details: for ED50: Rattus norvegicus, central, 5 min, read-out: ED50, analgesic activity in the bee venom test; for ED50, analgesic activity in the bee venom test: intrathecally, bee venom 5 minutes after administration
Description: Adult male Sprague-Dawley (SD) rats weighting 200-250 g were used in the test after acclimation by feeding for 1 week. First, tubes were placed intrathecally (i.t.) in rats. The rats with good conditions after 3-4 days were selected for the bee venom test. The animals were divided into an intrathecal DMSO group, an intrathecal morphine group and a group of intrathecal compounds of the invention. 5 minutes after administration, each group of rats was […] injected with 50 μl of bee venom at their left hind limbs. Times of feet spontaneous drawing back every 5 minutes in 60 minutes, as well as total times of feet drawing back in an hour were observed and recorded. The response latency to heat stimulus and threshold of mechanical stimulus on both thenars of each group of rats were measured before intrathecal administration and 2 hours after bee venom injection respectively.

[3] = intragastrically, acetic acid 60 minutes after dosing, writhing times in 15 minutes
[4] = subcutaneously (S. C), acetic acid 30 minutes after dosing, writhing times in 15 minutes
[5] = intragastrically, tested 60 minutes after dosing
[6] = intravenous injection, tested 60 minutes after dosing
[7] = po, intragastrically, acetic acid 60 minutes after dosing, writhing times in 15 minutes
[8] = sc, subcutaneously (S. C), acetic acid 30 minutes after dosing, writhing times in 15 minutes

Row | SMILES | ED50, analgesic activity in writhing test (Kunming mice; [3]) | ED50, analgesic activity in writhing test (Kunming mice; [4]) | ED50, analgesic activity in the hot-plate test (KM female mice; [5]) | ED50, analgesic activity in the hot-plate test (KM female mice; [6]) | ED50, analgesic activity in the spared nerve injury (SNI) test (Sprague-Dawley (SD) rats [1]) | ED50, analgesic activity in the bee venom test (Sprague-Dawley (SD) rats [2]) | further results
1 | NCC1(CC(=O)O)CCCCC1 [Gabapentin, reference compound] |  |  |  |  |  |  | ED50 (Sprague-Dawley (SD) rats [1]): 50 mg/kg
2 | COc1ccccc1N1CCN(CC(=O)c2ccccc2)CC1 [Example 1] | 20 mg/kg | 15 mg/kg | 25 mg/kg | 8 mg/kg | 40 mg/kg |  | 
3 | COc1ccc(N2CCN(CC(=O)c3ccccc3)CC2)cc1 [Example 3] | 30 mg/kg | 20 mg/kg | 50 mg/kg | 19 mg/kg | 30 mg/kg |  | 
4 | O=C(CN1CCN(c2ccc(F)cc2)CC1)c1ccccc1 [Example 8] |  |  |  |  |  |  | ED50 (Kunming mice; [7]): 120 mg/kg; ED50 (Kunming mice; [8]): 80 mg/kg; ED50 (KM female mice; [6]): 40 mg/kg; ED50 (KM female mice; po, intragastrically, tested 60 minutes after dosing): 120 mg/kg; ED50 (Sprague-Dawley (SD) rats [2]): 0.12 mg/kg; ED50 (Sprague-Dawley (SD) rats [1]): 150 mg/kg
5 | O=C(CN1CCN(c2nc3ccc(Cl)cc3s2)CC1)c1ccccc1 [Example 14] | 152 mg/kg | 78 mg/kg |  |  | 152 mg/kg |  | 
6 | CC(=O)Oc1ccccc1C(=O)O [Aspirin, reference compound] |  |  |  |  |  |  | ED50 (Kunming mice; [7]): 100 mg/kg; ED50 (Kunming mice; [8]): 80 mg/kg
7 | COc1cccc(N2CCN(CC(=O)c3ccccc3)CC2)c1 [Example 2] | 5 mg/kg | 2 mg/kg |  |  | 15 mg/kg | 0.1 mg/kg | 
8 | O=C(CN1CCN(c2cccc(Cl)c2)CC1)c1ccccc1 [Example 5] | 50 mg/kg | 18 mg/kg | 55 mg/kg | 20 mg/kg | 80 mg/kg | 0.06 mg/kg | 
9 | COc1ccc2nc(N3CCN(CC(=O)c4ccccc4)CC3)sc2c1 [Example 11] | 200 mg/kg | 120 mg/kg | 150 mg/kg | 60 mg/kg | 180 mg/kg | 0.2 mg/kg | 
10 | CN1CC[C@]23c4c5ccc(O)c4O[C@H]2[C@@H](O)C=C[C@H]3[C@H]1C5 [Morphine, reference compound] |  |  |  |  |  |  | ED50 (Kunming mice; po): 4 mg/kg; ED50 (Kunming mice; sc): 1 mg/kg; ED50 (KM female mice; iv): 1 mg/kg; ED50 (KM female mice; po): 2 mg/kg; ED50 (Sprague-Dawley (SD) rats [2]): 0.005 mg/kg
11 | O=C(CN1CCN(c2ccccc2Cl)CC1)c1ccccc1 [Example 4] | 80 mg/kg | 36 mg/kg |  |  | 100 mg/kg |  | 
12 | Cc1ccc2nc(N3CCN(CC(=O)c4ccccc4)CC3)sc2c1 [Example 12] | 180 mg/kg | 100 mg/kg |  |  | 200 mg/kg |  | 
13 | Cc1cccc(N2CCN(CC(=O)c3ccccc3)CC2)c1C [Example 10] | 5 mg/kg | 10 mg/kg | 30 mg/kg | 10 mg/kg | 15 mg/kg | 0.03 mg/kg | 
14 | O=C(CN1CCN(c2cccc(Cl)c2Cl)CC1)c1ccccc1 [Example 7] | 60 mg/kg | 20 mg/kg | 60 mg/kg | 20 mg/kg | 60 mg/kg | 0.08 mg/kg | 
15 | O=C(CN1CCN(c2ncccn2)CC1)c1ccccc1 [Example 16] |  |  |  |  |  |  | ED50 (Kunming mice; [7]): 132 mg/kg; ED50 (Kunming mice; [8]): 100 mg/kg; ED50 (Sprague-Dawley (SD) rats [1]): 167 mg/kg
16 | O=C(CN1CCN(c2cccc(C(F)(F)F)c2)CC1)c1ccccc1 [Example 9] | 3 mg/kg | 2 mg/kg | 20 mg/kg | 5 mg/kg | 10 mg/kg | 0.02 mg/kg | 
